Each block holds one compound with its values, some of them ahead of it.
Experiments:
Experiment in all cases: graphene oxide fluorescence desorption assay
[1] = system: OA-27 (DNA, aptamer) CAGCTCAGAAGCTTGATCCTATTTGACCATGTCGAGGGAGACGCGCAGTCGCTACCACCTGACTCGAAGTCGTGCATCTG; settings: 150 mM Na+, 2 mM Mg2+, binding buffer 50 mM Tris, pH 7.4; for binding: 1 μM compound tested, 150 nM aptamer
[2] = system: OA-17 (DNA, aptamer) CAGCTCAGAAGCTTGATCCTTTCCCCAAACTGTTGCAACCTCTGCTTTCTTTCGCTATATGACTCGAAGTCGTGCATCTG; settings: 150 mM Na+, 2 mM Mg2+, binding buffer 50 mM Tris, pH 7.4; for binding: 1 μM compound tested, 150 nM aptamer
[3] = system: OA-08 (DNA, aptamer) CAGCTCAGAAGCTTGATCCTAGCCCGCCAACCTACATCATCTACACTTCGTTTTAACCTTGACTCGAAGTCGTGCATCTG; settings: 150 mM Na+, 2 mM Mg2+, binding buffer 50 mM Tris, pH 7.4; for binding: 1 μM compound tested, 150 nM aptamer
[4] = system: OA-09 (DNA, aptamer) CAGCTCAGAAGCTTGATCCTTAGCACACAACCCTTTGATTGGGATATCTCATCCCTCGGACTCGAAGTCGTGCATCTG; settings: 150 mM Na+, 2 mM Mg2+; binding buffer 50 mM Tris, pH 7.4; 1 μM OA, 5–200 nM aptamer
[5] = system: OA-21 (DNA, aptamer) CAGCTCAGAAGCTTGATCCTGGATGACCGTTGCAAGCGATCCATTGTTGTTTGATCATGTGACTCGAAGTCGTGCATCTG; settings: 150 mM Na+, 2 mM Mg2+; binding buffer 50 mM Tris, pH 7.4; 1 μM OA, 5–200 nM aptamer
[6] = system: OA-01 (DNA, aptamer) CAGCTCAGAAGCTTGATCCTGCACACGAGTTACGCCCCATCGTTGTCCTTTCCCTCACGTGACTCGAAGTCGTGCATCTG; settings: 150 mM Na+, 2 mM Mg2+; binding buffer 50 mM Tris, pH 7.4; 1 μM OA, 5–200 nM aptamer
[7] = system: OA27-1 (DNA, aptamer) ATTTGACCATGTCGAGGGAGACGCGCAGTCGCTACCACCT; settings: 150 mM Na+, 2 mM Mg2+; binding buffer 50 mM Tris, pH 7.4; FAM-aptamer, GO separation
[8] = system: OA-22 (DNA, aptamer) CAGCTCAGAAGCTTGATCCTGGCCCCGATATGATTGCTATCATTCGCATCTGCTTCACTTGACTCGAAGTCGTGCATCTG; settings: 150 mM Na+, 2 mM Mg2+; binding buffer 50 mM Tris, pH 7.4; 1 μM OA, 5–200 nM aptamer
[9] = system: OA-14 (DNA, aptamer) CAGCTCAGAAGCTTGATCCTATGCTTCGTGGGACAAGAGTTGACACATCGTCGTTAGGTTGACTCGAAGTCGTGCATCTG; settings: 150 mM Na+, 2 mM Mg2+; binding buffer 50 mM Tris, pH 7.4; 1 μM OA, 5–200 nM aptamer

binding [1]: no
SMILES: C/C(=C/C=C/[C@@H](C)C(=O)O)[C@H]1CN[C@H](C(=O)O)[C@H]1CC(=O)O

binding [1]: no | binding [2]: yes | binding [3]: yes
SMILES: C=C1[C@@H](O)[C@@H]2O[C@]3(CC[C@H](/C=C/[C@@H](C)[C@@H]4CC(C)=C[C@@]5(O[C@H](C[C@@](C)(O)C(=O)O)CC[C@H]5O)O4)O3)CC[C@H]2O[C@@H]1[C@@H](O)C[C@H](C)[C@@H]1CCC[C@@]2(OCCC[C@H]2C)O1

Kd [4]: 127 ± 39 nM | Kd [5]: 118 ± 18 nM | Kd ([1]; 1 μM OA, 5–200 nM aptamer): 42 ± 4 nM | Kd ([2]; 1 μM OA, 5–200 nM aptamer): 79 ± 20 nM | Kd [6]: 125 ± 22 nM | Kd [7]: 40 nM | Kd ([3]; 1 μM OA, 5–200 nM aptamer): 88 ± 30 nM | Kd [8]: 70 ± 16 nM | Kd [9]: 1772 ± 543 nM
SMILES: C=C1[C@@H](O)[C@@H]2O[C@]3(CC[C@H](/C=C/[C@@H](C)[C@@H]4CC(C)=C[C@@]5(O[C@H](C[C@@](C)(O)C(=O)O)CC[C@H]5O)O4)O3)CC[C@H]2O[C@@H]1[C@@H](O)C[C@H](C)[C@H]1O[C@@]2(CCCCO2)CC[C@H]1C

binding [1]: no | binding [2]: yes | binding [3]: yes
SMILES: C=C1[C@@H](O)[C@@H]2O[C@]3(CC[C@H](/C=C/[C@@H](C)[C@@H]4CC(C)=C[C@@]5(O[C@H](C[C@@](C)(O)C(=O)O)CC[C@H]5O)O4)O3)CC[C@H]2O[C@@H]1[C@@H](O)C[C@H](C)[C@H]1O[C@@]2(CC[C@H]1C)OCCC[C@H]2C
